One experiment concerns PAF receptor. The experiment in a line: CD86 expression in presence of PAF or of the PAF antagonist BN52021. It counts as cell-based, human. The following applies: differentiation induced by oxidized LDLs; BN52021 added on 5th day. The protocol:
The phenotype of the “control” and “LPC” cells is analyzed by flow cytometry on a FACSCalibur (Becton Dickinson, Francklin Lakes, N.J., USA) using FITC (fluorosceine isothiocyanate)-conjugated anti-CD14, anti-HLA-DR and anti-CD80 and PE (phycoerythrin)-conjugated anti-CD1a, anti-CD83, anti-CD86 and anti-CD40 (Beckman Coulter). According to the state of the art, monocytes preferentially have a CD14+ CD1a− phenotype, immature dendritic cells preferentially have a CD14− CD1a+CD86− phenotype, and mature dendritic cells preferentially have a CD14− CD1a intermediate—CD86+ phenotype.
Thus, a solution of PAF (Sigma, 5 μM) was added to the culture medium on the 5th day of monocyte differentiation. The expression of CD86 by the “control” cells and by the “LPC” cells, obtained in the presence or in the absence of PAF, was analyzed according to the protocol described in example 2, and the results are given in table 9.
Thus, a solution of the PAF antagonist BN52021 (Biomol, Plymouth Meeting, USA, 100 μM) was added to the culture medium on the 5th day of monocyte differentiation. The expression of CD86 by the “control” and “LPC” cells, obtained in the presence or in the absence of BN52021, was analyzed according to the protocol described in example 2, and the results are given in table 10.

For the next experiment, the target named is T1, PPARγ (Homo sapiens, UniProt P37231).
T1 construct: After having harvested the cells, the nuclear proteins were extracted with the Nuclear extract Kit (Sigma); endogenous in cells; host or cells: monocytes undergoing differentiation into dendritic cells (nuclear extract)
T1 sequence (P37231 1-505): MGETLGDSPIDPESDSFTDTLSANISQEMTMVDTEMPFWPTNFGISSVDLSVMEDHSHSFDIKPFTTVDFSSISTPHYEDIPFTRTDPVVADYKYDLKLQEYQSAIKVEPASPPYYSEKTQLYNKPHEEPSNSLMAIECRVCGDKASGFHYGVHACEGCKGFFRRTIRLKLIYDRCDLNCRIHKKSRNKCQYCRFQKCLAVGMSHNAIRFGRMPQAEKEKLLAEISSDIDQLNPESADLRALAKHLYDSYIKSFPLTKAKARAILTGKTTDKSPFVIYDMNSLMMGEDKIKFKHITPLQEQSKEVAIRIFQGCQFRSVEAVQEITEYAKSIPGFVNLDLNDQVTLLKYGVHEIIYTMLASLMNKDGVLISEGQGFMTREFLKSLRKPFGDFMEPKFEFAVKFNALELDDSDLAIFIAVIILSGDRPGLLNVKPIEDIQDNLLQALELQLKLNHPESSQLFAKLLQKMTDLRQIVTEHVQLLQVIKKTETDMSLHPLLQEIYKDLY
The experiment can be described thus: PPAR binding activity by gel shift on nuclear proteins of treated monocytes. It counts as cell-based. The following applies: Table 7; ciglitizone 50 μM 15 minutes before LPC 40 μM for 2 hours; control = 100%. As for the experimental part: (§1) Next, the inventors investigated the transcription factors involved in the maturation process induced by LPC. In order to determine whether PPARs are involved in the LPC-induced maturation, the ability of the two transcription factors PPARγ and PPARδ to bind was analyzed using the gel shift technique. 3 isotypes of PPAR nuclear receptors (peroxisome proliferator-activated receptor) exist: α, γ and δ. PPARγs are the targets for molecules of the thiazolidinedione class, such as ciglitizone, used in the treatment of type II diabetes. PPARδs have a broader expression and can be repressors of PPARγs. The monocytes undergoing differentiation were incubated for two hours with a solution of LPC (40 μM) (“LPC” cells). “Control” cells are also obtained in the absence of LPC in the culture medium. After having harvested the cells, the nuclear proteins were extracted with the Nuclear extract Kit (Sigma). The nuclear proteins were then brought into contact with a ratioactively labeled probe containing a response element recognized by PPARs. […] The PPAR binding activity was determined by measuring the intensity of these bands. These activities are expressed as a percentage with respect to the “control” cells. […]
(§2) The activity of the PPARγ and PPARδ transcription factors was measured in these cells by the gel shift technique, as described above.
(§3) INTRALIPID® regulates PPARs in vitro. […] The cells were harvested after 1 h, 2 h or 8 h of incubation with INTRALIPID®, the nuclear proteins were extracted and the activity of PPARγ and PPARδ was determined as described in example 6.
(§4) Secondly, a solution of INTRALIPID® (50 μg/ml of phospholipids) was added to the culture medium on the 5th day of monocyte differentiation, 15 minutes before the addition of a solution of LPC (40 μM) (“LPC+Intralipid” cells). […] The cells were harvested after 2 h of incubation, the nuclear proteins were extracted and the activity of PPARγ and PPARδ was determined as described in example 6.

A further experiment deals with PPARδ. The experiment is described as above. Type of experiment: cell-based, human. The following applies: Table 7; ciglitizone 50 μM 15 minutes before LPC 40 μM for 2 hours; control = 100%. The protocol: as §1, §2, §3, §4
Experiment [1] concerns BALB/c mice. The experiment can be described thus: Migration of skin dendritic cells to draining lymph nodes (FITC uptake). Type of experiment: in vivo, mouse. To be noted: auricular and maxillary lymph nodes after 24 h; LPC 0.1 M on ear skin 10 minutes before FITC 1.5%. The protocol:
This fluorescent label is taken up by the dendritic cells of the skin. After 24 h, the auricular and maxillary lymph nodes are removed and the cells are placed in suspension. The cell suspension is enriched in dendritic cells by metrizamide (Sigma) gradient centrifugation. The cells are labeled with an antibody (Pharmingen) which recognizes Major Histocompatibility Complex (MHC) […] molecules and analysis by flow cytometry makes it possible to quantify the percentage of large cells (dendritic cells) expressing the MHC class II molecules and containing FITC. These cells are presenting cells which have taken up the FITC in the periphery and have migrated to the lymph nodes.

Experiment [2] has as its system BALB/c mice. The experiment in a line: Proliferation of HEL-specific T cells of popliteal lymph nodes after immunization (thymidine incorporation). It counts as in vivo, mouse. The protocol: LPC stimulates the T response specific for a co-injected soluble antigen. LPC dissolved in PBS (250 or 500 nmol in 50 μl) is mixed with hen egg lysozyme (HEL, 50 μg) and this mixture is injected into the plantar foot pad of BALB/c mice. After 7 days, the popliteal lymph nodes are removed and their cells are restimulated in triplicate in vitro, in a culture medium containing 30 μM of HEL antigen, or in the absence of HEL. After 3 days, the T lymphocyte proliferation is measured by incorporation of triturated thymidine for 16 h.
INTRALIPID® blocks the inflammation and the immune response induced by LPC, in vivo. In this example, 3 batches of BALB/c mice are immunized against the hen egg lysozyme (HEL) antigen by injection of 50 μl of solution into the plantar foot pad. The “HEL” control batch receives 50 μg of HEL, the “HEL+Intralipid” batch receives a mixture of INTRALIPID® (45 μl) and of 50 μg of HEL (5 μl of a solution at 10 mg/ml). The “HEL+LPC” batch receives 50 μg of HEL with 350 nmol of LPC dissolved in PBS. The “HEL+LPC+Intralipid” batch receives 50 μg of HEL mixed with 350 nmol of LPC dissolved in 45 μl of INTRALIPID®. After 24 hours, the thickness of the foot pads is measured using a micrometer, and compared with the measurement taken before injection. The difference in thickness is proportional to the intensity of the inflammation.
Seven days after the injection, the popliteal lymph nodes are removed and their cells are restimulated in vitro in triplicate, in a culture medium containing 10 μM of HEL or in the absence of HEL. After 3 days, the proliferation of HEL-specific T lymphocytes is measured by incorporation of triturated thymidine for 16 h.
(Dividing cells build labelled thymidine or BrdU into new DNA.)

[3] abbreviates: Table 18, HEL 50 μg, LPC 350 nmol, Intralipid 45 μl, seven days after injection.

Turning to `CC1C(=O)OC2C(O)C34C5CC(C(C)(C)C)C36C(OC(=O)C6O)OC4(C(=O)O5)C12O` (centres unmarked) [BN52021, reference compound], in the experiment with PAF receptor, the “Inhibition of the action of the oxidized LDLs” value is on record as 100%.

Regarding `CC1(COc2ccc(CC3SC(=O)NC3=O)cc2)CCCCC1` (centres unmarked) [Ciglitizone, reference compound], the PPARγ binding activity on PPARγ came to 237%. In addition, the PPARδ binding activity in the experiment with PPARδ was 106%.

Regarding `O=C1OC2(c3ccc(O)cc3Oc3cc(O)ccc32)c2ccc(N=C=S)cc21` [FITC], the “FITC+ dendritic cells” value in the experiment on BALB/c mice [1] was found to be 7.1 ± 1.7%.

Take “HEL: hen egg lysozyme, soluble antigen; antigen-only group”: the “Restimulation with HEL (30 μM)” value with BALB/c mice [2] (Table 13, immunization with HEL 50 μg alone) turned out to be 5370 ± 1983 CPM. In addition, the “Proliferation in the absence of HEL” value is listed as 1315 ± 275 CPM in the experiment with BALB/c mice [2] (Table 13, immunization with HEL 50 μg alone, day 7 lymph node cells) and 370 ± 212 cpm in the experiment on BALB/c mice [2] (setting [3]). Besides, in the experiment with BALB/c mice [2] (setting [3]), the “Restimulation with HEL (10 μM)” value turned out to be 738 ± 408 cpm.

These data come from patent US7368287B2, “Use of L-α-lysophosphatidylcholine to obtain the differentiation of monocytes into mature dendritic cells in vitro” (Biomerieux, priority 2002, dated 2008).
